The record followed here is PubChem BioAssay (NCI).

Some test systems named below: EKVX NSCLC; HS 578T breast; HT29 colon; MDA-MB-435; MOLT-4 leukemia; OVCAR-5 ovarian; RPMI-8226 leukemia; SK-MEL-28 melanoma; SNB-75 CNS; T-47D breast.
Holding throughout (test): inhibition of tumour cell growth, NCI panel, 48 h

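Five concentrations, 48 hours, 96-well plates. GI50 is the concentration that inhibits growth by half. TGI denotes the concentration required for complete inhibition of growth.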

As to `CSc1ccc(C2=NN(C(=O)c3ccc(N)cc3)C(c3ccc(F)cc3)C2)cc1` (centres undefined), the GI50 was 16.6 µM in the assay with EKVX NSCLC; 21.4 µM with HS 578T breast; 3.72 µM in the assay with HT29 colon; 6.55 µM in the assay with MDA-MB-435; 10.5 µM in the assay on MOLT-4 leukemia; 16.7 µM in the assay on OVCAR-5 ovarian. For the same compound, the GI50 was 1.88 µM in the assay on RPMI-8226 leukemia, 18.4 µM with SK-MEL-28 melanoma, 14.2 µM with SNB-75 CNS and 6.45 µM with T-47D breast. Further, the TGI in the assay with EKVX NSCLC came to 34 µM; in the assay with HS 578T breast, 55.8 µM; with HT29 colon, 17.5 µM; with MDA-MB-435, 23.6 µM; with MOLT-4 leukemia, 38.2 µM; in the assay on OVCAR-5 ovarian it was 31.2 µM. The TGI in the assay on RPMI-8226 leukemia came to 4.41 µM; with SK-MEL-28 melanoma, 34.7 µM; with SNB-75 CNS it was 28.1 µM; in the assay with T-47D breast, 27.6 µM.
For the compound `Cc1cc2c(C(C)C)c(O)c(O)c(C=O)c2c(O)c1-c1c(C)cc2c(C(C)C)c(O)c(O)c(C=O)c2c1O` (tested in a mixture with another compound), the GI50 with EKVX NSCLC was 0.473 µM; in the assay with HS 578T breast, 0.543 µM; with HT29 colon, 1.61 µM; in the assay on MDA-MB-435, 1.86 µM; with MOLT-4 leukemia, 0.748 µM; in the assay with OVCAR-5 ovarian, 1.65 µM. Further, the GI50 with RPMI-8226 leukemia was 0.529 µM; with SK-MEL-28 melanoma it was 1.64 µM; in the assay with SNB-75 CNS it was 1.55 µM; with T-47D breast, 1.77 µM. Also, the TGI in the assay with EKVX NSCLC is 3.18 µM; with HS 578T breast it was 4.33 µM; in the assay with HT29 colon it was 3.51 µM; in the assay with MDA-MB-435, 5.19 µM; in the assay on MOLT-4 leukemia, 13.6 µM; in the assay on OVCAR-5 ovarian, 5.26 µM. The TGI was 4.74 µM in the assay on RPMI-8226 leukemia, 3.64 µM in the assay on SK-MEL-28 melanoma, 5.03 µM with SNB-75 CNS and 7.03 µM in the assay on T-47D breast.
For `ClC1=C(Cl)C(Cl)=C(Cl)C1=Cc1ccc(Cl)cc1`, the GI50 in the assay with EKVX NSCLC was 0.816 µM; with HS 578T breast, 0.585 µM; in the assay with HT29 colon, 0.27 µM; with MDA-MB-435, 0.507 µM; in the assay with MOLT-4 leukemia, 0.356 µM; in the assay with OVCAR-5 ovarian it was 0.705 µM. The GI50 was 0.422 µM in the assay on RPMI-8226 leukemia, 1.4 µM in the assay with SK-MEL-28 melanoma, 1.44 µM with SNB-75 CNS and 0.484 µM in the assay on T-47D breast. Besides, the TGI with EKVX NSCLC was 3.08 µM; with HT29 colon, 0.735 µM; with MDA-MB-435, 2.95 µM; in the assay with MOLT-4 leukemia it was 2.96 µM; with OVCAR-5 ovarian, 2.05 µM; with RPMI-8226 leukemia it was 5.32 µM. Moreover, the TGI in the assay on SK-MEL-28 melanoma came to 2.8 µM; with SNB-75 CNS it was 3.26 µM; with T-47D breast it was 2.04 µM.
In the case of `O=C(/C=C/c1cccc(B(O)O)c1)c1cccc(B(O)O)c1`, the GI50 in the assay with EKVX NSCLC was 6.38 µM; in the assay on HS 578T breast it was 3.89 µM; with HT29 colon, 1.68 µM; in the assay with MDA-MB-435, 1.9 µM; with MOLT-4 leukemia, 2.1 µM; with OVCAR-5 ovarian, 2.17 µM. The GI50 with RPMI-8226 leukemia was 2.25 µM; in the assay with SK-MEL-28 melanoma, 1.72 µM; in the assay on SNB-75 CNS, 3.61 µM; with T-47D breast, 2.31 µM. Moreover, the TGI was 23.1 µM in the assay on EKVX NSCLC; 54.8 µM with HS 578T breast; 3.17 µM in the assay on HT29 colon; 4.88 µM in the assay on MDA-MB-435; 5.96 µM with MOLT-4 leukemia; 4.87 µM in the assay on OVCAR-5 ovarian. For the same compound, the TGI amounted to 5.68 µM with RPMI-8226 leukemia, 3.46 µM in the assay with SK-MEL-28 melanoma, 16.3 µM in the assay on SNB-75 CNS and 9.58 µM in the assay with T-47D breast.
